The values below are quoted from earlier work in PMC10952301, “Solid‐Phase Synthesis and Biological Evaluation of Peptides ADP‐Ribosylated at Histidine” (Angewandte Chemie (International Ed. in English), 2023).

The structures appear in SMILES notation.

In general, pKa refers to the pH at which an ionisable group is half protonated.

For this series the following is noted: quoted without reference to compare leaving group capacity.

In the case of `c1c[nH]nn1` [1,2,3‐triazole], the pKa is reported as 9.4.
